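Five compound concentrations were applied to cells in 96-well plates for 48 hours; endpoints were derived by simple linear interpolation of the resulting dose-response curve. At the GI50, growth is halved. The concentration for full growth arrest is given as TGI.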
Tests used:
Experiment in all cases: inhibition of tumour cell growth, NCI panel, 48 h
OVCAR-3 ovarian = system: OVCAR-3 ovarian
CCRF-CEM leukemia = system: CCRF-CEM leukemia
NCI-H23 lung = system: NCI-H23 lung
MOLT-4 leukemia = system: MOLT-4 leukemia
SNB-19 CNS = system: SNB-19 CNS
NCI-H460 lung = system: NCI-H460 lung
OVCAR-5 ovarian = system: OVCAR-5 ovarian
NCI-H522 lung = system: NCI-H522 lung
NCI-H226 lung = system: NCI-H226 lung
HCC-2998 colon = system: HCC-2998 colon

Row | Compound | TGI (OVCAR-3 ovarian) [µM] | TGI (CCRF-CEM leukemia) [µM] | TGI (NCI-H23 lung) [µM] | TGI (MOLT-4 leukemia) [µM] | TGI (SNB-19 CNS) [µM] | TGI (NCI-H460 lung) [µM] | TGI (OVCAR-5 ovarian) [µM] | TGI (NCI-H522 lung) [µM] | TGI (NCI-H226 lung) [µM] | TGI (HCC-2998 colon) [µM] | GI50 (OVCAR-3 ovarian) [µM] | GI50 (CCRF-CEM leukemia) [µM] | GI50 (NCI-H23 lung) [µM] | GI50 (MOLT-4 leukemia) [µM] | GI50 (SNB-19 CNS) [µM] | GI50 (NCI-H460 lung) [µM] | GI50 (OVCAR-5 ovarian) [µM] | GI50 (NCI-H522 lung) [µM] | GI50 (NCI-H226 lung) [µM] | GI50 (HCC-2998 colon) [µM]
1 | Nn1c(-c2ccccc2)nc2ccc(Br)cc2c1=O | 81.9 | 76.4 | > 100 | 50.5 | > 100 | > 100 | > 100 | > 100 | > 100 | > 100 | – | – | – | – | – | – | – | – | – | –
2 | O=C(CCCCCCSc1nc(-c2ccccc2)cc(-c2ccc(Cl)cc2)n1)NO | 6.86 | 6.49 | 5.13 | 4.26 | 11.2 | 10.2 | 5.42 | 8.05 | 11.8 | 7.19 | 1.96 | 0.629 | 1.88 | 0.557 | 2.63 | 1.22 | 1.56 | 1.13 | 2.59 | 2.44
3 | CC1=C(C(=O)Nc2c(C)cccc2C)C(c2ccc3c(c2)OCO3)C(C(=O)Nc2c(C)cccc2C)=C(C)N1 | 98.6 | 41.9 | 29.8 | 61.5 | 32 | 39.9 | 33.7 | 31.7 | 32.3 | 32.3 | – | – | – | – | – | – | – | – | – | –
4 | COc1ccc(-c2nn3ncccc3c2-c2ccnc(Nc3ccc(Cl)c(C(F)(F)F)c3)n2)cc1 | > 25 | > 25 | > 25 | > 25 | > 25 | > 25 | > 25 | > 25 | > 25 | 20.8 | 10.5 | 8.37 | 10.6 | 10.9 | 16 | 8.45 | 9.39 | 12.4 | 10.5 | 6.42
5 | COc1cc(-c2nn(-c3ccc(NC(=O)c4ccc(Cl)c(Cl)c4)cc3)cc2-c2ccncc2)ccc1Cl | > 100 | > 100 | > 100 | > 100 | > 100 | > 100 | > 100 | > 100 | > 100 | > 100 | > 100 | 4.56 | 38.4 | 5.29 | 26.7 | 4.17 | > 100 | > 100 | > 100 | 31.8
6 | C=C1CC2(OC1=O)C(=O)N(CCCCCCCN1C(=O)C3(CC(=C)C(=O)O3)c3ccccc31)c1ccccc12 (stereo not given) | 4.07 | 6.42 | 11.6 | 5.53 | 22 | 12.3 | 14.2 | 1.85 | 2.76 | 13.7 | 1.27 | 0.896 | 3.71 | 0.267 | 8.52 | 2.9 | 7.09 | 0.82 | 1 | 6.44
7 | CCOC(=O)c1ccc(NC(=O)N2CC(C)OC(C)C2)cc1 (stereo not given) | > 100 | > 100 | > 100 | > 100 | > 100 | > 100 | > 100 | > 100 | > 100 | > 100 | > 100 | > 100 | > 100 | > 100 | > 100 | > 100 | > 100 | > 100 | > 100 | > 100
